Experimental data: patent US20070128217A1 (priority 2003, published 2007)

How the values were obtained:
[1] = system: antibodies in sera from SARS patients (sera 1a, 1b, 2, 6, 37, 62, London, SARS-yellow, SARS-green); type: binding, human; set-up: Binding of serum 6 to linear peptides of protein X1 of SARS-CoV Urbani / Binding of serum 37 to linear peptides of protein X1 of SARS-CoV Urbani / Binding of serum 6 to looped/cyclic peptide (PEPSCAN-ELISA) / Binding of serum 37 to looped/cyclic peptide (PEPSCAN-ELISA) / Binding of serum 37 to looped/cyclic peptides of protein X1 of SARS-CoV Urbani / Binding of serum 6 to linear peptides of protein X2 / Binding of serum 37 to linear peptides of protein X2 / Binding of serum 37 to looped/cyclic peptides of protein X2 of SARS-CoV Urbani / Binding of serum 6 to linear peptides of protein M of SARS-CoV Urbani / Binding of serum 37 to linear peptides of protein M of SARS-CoV Urbani / Binding of serum 6 to looped/cyclic peptides of protein M of SARS-CoV Urbani / Binding of serum 37 to looped/cyclic peptides of protein M of SARS-CoV Urbani / Binding of serum 6 to linear peptides of protein X3 of SARS-CoV Urbani / Binding of serum 37 to linear peptides of protein X3 of SARS-CoV Urbani / Binding of serum 37 to looped/cyclic peptides of protein X3 of SARS-CoV Urbani / Binding of serum 6 to linear peptides of protein X4 of SARS-CoV Urbani / Binding of serum 37 to linear peptides of protein X4 of SARS-CoV Urbani / Binding of serum 37 to looped/cyclic peptides of protein X4 of SARS-CoV Urbani / Binding of serum 6 to linear peptides of protein X5 of SARS-CoV Urbani / Binding of serum 37 to linear peptides of protein X5 of SARS-CoV Urbani / Binding of serum 37 to looped/cyclic peptides of protein X5 of SARS-CoV Urbani / Binding of serum 6 to linear peptides of protein N of SARS-CoV Urbani / Binding of serum 37 to linear peptides of protein N of SARS-CoV Urbani / Binding of serum 6 to linear peptide (PEPSCAN-ELISA) / Binding of serum 1a to looped/cyclic peptides of protein N of SARS-CoV Urbani / Binding of serum 1b to looped/cyclic peptides of protein N of SARS-CoV Urbani / Binding of serum 2 to looped/cyclic peptides of protein N of SARS-CoV Urbani / Binding of serum 6 to looped/cyclic peptides of protein N of SARS-CoV Urbani / Binding of serum 37 to looped/cyclic peptides of protein N of SARS-CoV Urbani / Binding of serum 62 to looped/cyclic peptides of protein N of SARS-CoV Urbani / Binding of serum London to looped/cyclic peptides of protein N of SARS-CoV Urbani / Binding of serum SARS-green to looped/cyclic peptides of protein N of SARS-CoV Urbani: unit not given here
[2] = system: rabbit serum obtained by immunizing a rabbit with the SARS-CoV strain Frankfurt 1; type: binding; set-up: Binding of a rabbit serum to linear peptides / Binding of a rabbit serum to looped peptides / Rabbit serum linear peptides / Rabbit serum looped peptides / Binding of a rabbit serum to linear peptides of protein N of SARS-CoV Urbani (Rabbit serum linear peptides) / Binding of a rabbit serum to looped/cyclic peptides of protein N of SARS-CoV Urbani (Rabbit serum looped peptides): unit not given here
[3] = system: control sera (pooled serum of ten healthy LUMC hospital workers; commercial negative donor pooled serum from the Dutch bloodbank); type: binding, human; set-up: Binding of Control serum LUMC to linear peptides / Binding of Control serum Blood-bank to linear peptides / Binding of Control serum LUMC to looped peptides / Binding of Control Serum Blood-Bank to Looped peptides / Binding of Control serum LUMC to linear peptides of the protein M of SARS-CoV Urbani / Binding of Control serum Blood-bank to linear peptides of the protein M of SARS-CoV Urbani / Binding of Control serum LUMC to looped peptides of the protein M of SARS-CoV Urbani / Binding of Control Serum Blood-Bank to Looped peptides of the protein M of SARS-CoV Urbani: unit not given here
[4] = system: recombinant human anti-SARS-CoV antibody 03-018; type: binding; set-up: Binding of antibody 03-018 to linear peptides of the N protein of SARS-CoV Urbani / Binding of antibody 03-018 to looped/cyclic peptides of the N protein of SARS-CoV Urbani: unit not given here

| Sequence | Binding of serum 1a to linear peptides of protein N of SARS-CoV Urbani [1] | Binding of serum 1a to looped/cyclic peptides of protein N of SARS-CoV Urbani [1] | Binding of serum 1b to linear peptides of protein N of SARS-CoV Urbani [1] | Binding of serum 1b to looped/cyclic peptides of protein N of SARS-CoV Urbani [1] | Binding of serum 2 to linear peptides of protein N of SARS-CoV Urbani [1] | Binding of serum 2 to looped/cyclic peptides of protein N of SARS-CoV Urbani [1] | Binding of serum 6 to linear peptides of protein N of SARS-CoV Urbani [1] | Binding of serum 6 to looped/cyclic peptides of protein N of SARS-CoV Urbani [1] | Binding of serum 37 to linear peptides of protein N of SARS-CoV Urbani [1] | Binding of serum 37 to looped/cyclic peptides of protein N of SARS-CoV Urbani [1] | Binding of serum 62 to linear peptides of protein N of SARS-CoV Urbani [1] | Binding of serum 62 to looped/cyclic peptides of protein N of SARS-CoV Urbani [1] | Binding of serum London to linear peptides of protein N of SARS-CoV Urbani [1] | Binding of serum London to looped/cyclic peptides of protein N of SARS-CoV Urbani [1] | Binding of serum SARS-green to linear peptides of protein N of SARS-CoV Urbani [1] | Binding of serum SARS-green to looped/cyclic peptides of protein N of SARS-CoV Urbani [1] | Binding of serum SARS-yellow to linear peptides of protein N of SARS-CoV Urbani [1] | Binding of serum SARS-yellow to looped/cyclic peptides of protein N of SARS-CoV Urbani [1] | Binding of a rabbit serum to linear peptides of protein N of SARS-CoV Urbani (Rabbit serum linear peptides) [2] | Binding of a rabbit serum to looped/cyclic peptides of protein N of SARS-CoV Urbani (Rabbit serum looped peptides) [2] | further results |
| --- | --- | --- | --- | --- | --- | --- | --- | --- | --- | --- | --- | --- | --- | --- | --- | --- | --- | --- | --- | --- | --- |
| RIGMEVTPSGTWLTY | 0.2 | 0.4 | 0.1 | 0.2 | 0.1 | 0.5 | 0.1 | 0.3 | 0.4 | 0.7 | 0.4 | 0.8 | 0.3 | 0.6 | 0.5 | 0.5 | 0.9 | 0.5 | 0.0 | 0.5 | Control Serum Blood-Bank Looped peptides [3]: 0.8; Control serum Blood-bank linear peptides [3]: 0.5; Control serum LUMC linear peptides [3]: 0.5; Control serum LUMC looped peptides [3]: 0.7; Binding of antibody 03-018 to linear peptides of the N protein of SARS-CoV Urbani [4]: 0.1; Binding of antibody 03-018 to looped/cyclic peptides of the N protein of SARS-CoV Urbani [4]: 0.2 |
| RITFGGPTDSTDNNQ | 0.2 | 0.3 | 0.1 | 0.2 | 0.2 | 0.2 | 0.1 | 0.2 | 0.8 | 0.5 | 0.6 | 0.3 | 0.5 | 0.3 | 0.5 | 0.4 | 1.3 | 0.2 | 0.3 | 0.1 | Binding of Control Serum Blood-Bank to Looped peptides [3]: 0.6; Binding of Control serum Blood-bank to linear peptides [3]: 0.6; Binding of Control serum LUMC to linear peptides [3]: 0.5; Binding of Control serum LUMC to looped peptides [3]: 0.5; Recognition of the peptide by antibody 03-018 [4]: recognized |
| RPQGLPNNTASWFTA | 0.3 | 0.5 | 0.1 | 0.3 | 0.2 | 0.5 | 0.2 | 0.4 | 0.7 | 0.9 | 0.7 | 0.8 | 0.5 | 0.5 | 0.3 | 0.5 | 0.4 | 0.7 | 0.1 | 0.5 | Binding of Control Serum Blood-Bank to Looped peptides [3]: 0.9; Binding of Control serum Blood-bank to linear peptides [3]: 0.8; Binding of Control serum LUMC to linear peptides [3]: 0.8; Binding of Control serum LUMC to looped peptides [3]: 0.9; Binding of antibody 03-018 to linear peptides of the N protein of SARS-CoV Urbani [4]: 0.1; Binding of antibody 03-018 to looped/cyclic peptides of the N protein of SARS-CoV Urbani [4]: 0.2 |
| RQGTDYKHWPQIAQF | 0.3 | 0.5 | 0.2 | 0.4 | 0.2 | 0.5 | 0.2 | 0.3 | 0.7 | 0.8 | 0.8 | 0.9 | 0.7 | 0.5 | 0.3 | 0.4 | 0.6 | 0.8 | 0.2 | 0.4 | Binding of Control Serum Blood-Bank to Looped peptides [3]: 0.7; Binding of Control serum Blood-bank to linear peptides [3]: 0.7; Binding of Control serum LUMC to linear peptides [3]: 0.7; Binding of Control serum LUMC to looped peptides [3]: 0.8; Binding of antibody 03-018 to linear peptides of the N protein of SARS-CoV Urbani [4]: 0.1; Binding of antibody 03-018 to looped/cyclic peptides of the N protein of SARS-CoV Urbani [4]: 0.2 |
| RQKKQPTVTLLPAAD | 0.3 |  | 0.2 |  | 0.2 |  | 0.2 |  | 0.7 |  | 0.8 |  | 0.6 |  | 0.6 |  | 0.6 |  | 0.1 | 0.4 | Recognition of the peptide by sera of SARS-CoV infected individuals, and form (linear, looped/cyclic) in which it is recognized [1]: recognized in looped/cyclic form; Control Serum Blood-Bank Looped peptides [3]: 0.6; Control serum Blood-bank linear peptides [3]: 0.7; Control serum LUMC linear peptides [3]: 0.8; Control serum LUMC looped peptides [3]: 0.5; Binding of antibody 03-018 to linear peptides of the N protein of SARS-CoV Urbani [4]: 0.1; Binding of antibody 03-018 to looped/cyclic peptides of the N protein of SARS-CoV Urbani [4]: 0.2 |
